From ChEMBL document CHEMBL4507310, “Data for DCP probe A-1211212” (2021)

Experiments:
[1] = target: Prostaglandin G/H synthase 1 (Homo sapiens) (UniProt P23219); test: COX1(h) Eurofins-Cerep enzyme and uptake assay; details: Compound concentration 10.0 uM
[2] = target: cGMP-inhibited 3',5'-cyclic phosphodiesterase 3A (Homo sapiens) (UniProt Q14432); test: PDE3A (h) Eurofins-Cerep enzyme and uptake assay; details: Compound concentration 10.0 uM
[3] = target: Translocator protein (Rattus norvegicus) (UniProt P16257); test: BZD (peripheral) Eurofins-Cerep binding assay; parameters: ligand concentration 0.2 nM; details: filed as antagonist, Compound concentration 10.0 uM
[4] = target: Cannabinoid receptor 2 (Homo sapiens) (UniProt P34972); test: CB2 (h) Eurofins-Cerep binding assay; parameters: ligand concentration 0.8 nM; details: filed as agonist, Compound concentration 10.0 uM
[5] = target: T1, 5-hydroxytryptamine receptor 2C (Homo sapiens) (UniProt P28335); test: 5-HT2C (h) Eurofins-Cerep binding assay; parameters: ligand concentration 1 nM; details: filed as antagonist, Compound concentration 10.0 uM
T1 sequence (whole entry): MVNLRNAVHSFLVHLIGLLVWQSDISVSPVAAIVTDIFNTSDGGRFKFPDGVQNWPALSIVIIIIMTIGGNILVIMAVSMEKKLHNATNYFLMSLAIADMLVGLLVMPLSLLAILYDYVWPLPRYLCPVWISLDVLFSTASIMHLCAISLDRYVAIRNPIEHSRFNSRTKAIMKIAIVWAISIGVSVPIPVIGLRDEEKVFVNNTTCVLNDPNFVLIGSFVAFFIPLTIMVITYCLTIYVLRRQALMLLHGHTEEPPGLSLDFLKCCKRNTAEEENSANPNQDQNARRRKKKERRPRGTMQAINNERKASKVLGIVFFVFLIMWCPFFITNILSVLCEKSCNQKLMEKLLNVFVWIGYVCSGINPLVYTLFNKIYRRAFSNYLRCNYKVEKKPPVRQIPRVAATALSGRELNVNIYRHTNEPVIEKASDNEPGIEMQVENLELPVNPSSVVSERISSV

[6] = target: Sigma non-opioid intracellular receptor 1 (Homo sapiens) (UniProt Q99720); test: sigma (non-selective) (h) Eurofins-Cerep binding assay; parameters: ligand concentration 10 nM; details: filed as agonist, Compound concentration 10.0 uM
[7] = target: Glucocorticoid receptor (Homo sapiens) (UniProt P04150); test: GR (h) Eurofins-Cerep binding assay; parameters: ligand concentration 1.5 nM; details: filed as agonist, Compound concentration 10.0 uM
[8] = target: Tyrosine-protein kinase ABL2 (Homo sapiens) (UniProt P42684); details: Compound concentration 1000.0 nM
[9] = target: Activin receptor type-1 (Homo sapiens) (UniProt Q04771); details: Compound concentration 1000.0 nM
[10] = target: RAC-gamma serine/threonine-protein kinase (Homo sapiens) (UniProt Q9Y243); details: Compound concentration 1000.0 nM
[11] = target: Cyclin-dependent kinase 2 (Homo sapiens) (UniProt P24941); details: Compound concentration 1000.0 nM
[12] = target: Macrophage colony-stimulating factor 1 receptor (Homo sapiens) (UniProt P07333); details: Compound concentration 1000.0 nM
[13] = target: Death-associated protein kinase 2 (Homo sapiens) (UniProt Q9UIK4); details: Compound concentration 1000.0 nM
[14] = target: Serine/threonine-protein kinase DCLK1 (Homo sapiens) (UniProt O15075); details: Compound concentration 1000.0 nM
[15] = target: Serine/threonine-protein kinase DCLK2 (Homo sapiens) (UniProt Q8N568); details: Compound concentration 1000.0 nM
[16] = target: Tyrosine-protein kinase Fes/Fps (Homo sapiens) (UniProt P07332); details: Compound concentration 1000.0 nM
[17] = target: Homeodomain-interacting protein kinase 3 (Homo sapiens) (UniProt Q9H422); details: Compound concentration 1000.0 nM
[18] = target: MAP/microtubule affinity-regulating kinase 4 (Homo sapiens) (UniProt Q96L34); details: Compound concentration 1000.0 nM
[19] = target: Serine/threonine-protein kinase 26 (Homo sapiens) (UniProt Q9P289); details: Compound concentration 1000.0 nM
[20] = target: Serine/threonine-protein kinase Nek4 (Homo sapiens) (UniProt P51957); details: Compound concentration 1000.0 nM
[21] = target: Platelet-derived growth factor receptor beta (Homo sapiens) (UniProt P09619); details: Compound concentration 1000.0 nM
[22] = target: 1-phosphatidylinositol 3-phosphate 5-kinase (Homo sapiens) (UniProt Q9Y2I7); details: Compound concentration 1000.0 nM
[23] = target: Protein kinase C iota type (Homo sapiens) (UniProt P41743); details: Compound concentration 1000.0 nM
[24] = target: cGMP-dependent protein kinase 2 (Homo sapiens) (UniProt Q13237); details: Compound concentration 1000.0 nM
[25] = target: RAF proto-oncogene serine/threonine-protein kinase (Homo sapiens) (UniProt P04049); details: Compound concentration 1000.0 nM
[26] = target: Serine/threonine-protein kinase RIO1 (Homo sapiens) (UniProt Q9BRS2); details: Compound concentration 1000.0 nM
[27] = target: Dual serine/threonine and tyrosine protein kinase (Homo sapiens) (UniProt Q6XUX3); details: Compound concentration 1000.0 nM
[28] = target: Transient receptor potential cation channel subfamily M member 6 (Homo sapiens) (UniProt Q9BX84); details: Compound concentration 1000.0 nM
[29] = target: Histamine H1 receptor (Homo sapiens) (UniProt P35367); details: Compound concentration 10.0 uM
[30] = target: T2, Muscarinic acetylcholine receptor M4 (Homo sapiens) (UniProt P08173); details: Compound concentration 10.0 uM
T2 sequence (whole entry): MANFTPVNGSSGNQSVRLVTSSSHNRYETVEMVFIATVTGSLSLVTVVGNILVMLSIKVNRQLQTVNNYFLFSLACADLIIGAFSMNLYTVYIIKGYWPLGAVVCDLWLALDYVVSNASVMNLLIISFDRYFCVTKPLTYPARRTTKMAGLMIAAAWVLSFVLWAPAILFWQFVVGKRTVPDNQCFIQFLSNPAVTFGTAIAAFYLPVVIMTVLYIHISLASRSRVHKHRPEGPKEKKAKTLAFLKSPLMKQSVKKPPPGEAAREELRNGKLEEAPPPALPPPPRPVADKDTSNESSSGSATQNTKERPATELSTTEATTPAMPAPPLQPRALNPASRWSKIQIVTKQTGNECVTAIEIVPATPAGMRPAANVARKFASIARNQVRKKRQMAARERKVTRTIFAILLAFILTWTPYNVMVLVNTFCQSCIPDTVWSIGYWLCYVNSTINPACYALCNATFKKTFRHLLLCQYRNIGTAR

Chain of Translocator protein (Rattus norvegicus) (P16257 whole entry, looked up): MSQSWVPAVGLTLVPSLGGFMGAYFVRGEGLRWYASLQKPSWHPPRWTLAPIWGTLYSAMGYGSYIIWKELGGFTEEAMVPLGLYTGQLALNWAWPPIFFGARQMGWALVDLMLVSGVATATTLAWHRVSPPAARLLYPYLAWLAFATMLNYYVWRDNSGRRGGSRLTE
Chain of RAC-gamma serine/threonine-protein kinase (Homo sapiens) (Q9Y243 whole entry): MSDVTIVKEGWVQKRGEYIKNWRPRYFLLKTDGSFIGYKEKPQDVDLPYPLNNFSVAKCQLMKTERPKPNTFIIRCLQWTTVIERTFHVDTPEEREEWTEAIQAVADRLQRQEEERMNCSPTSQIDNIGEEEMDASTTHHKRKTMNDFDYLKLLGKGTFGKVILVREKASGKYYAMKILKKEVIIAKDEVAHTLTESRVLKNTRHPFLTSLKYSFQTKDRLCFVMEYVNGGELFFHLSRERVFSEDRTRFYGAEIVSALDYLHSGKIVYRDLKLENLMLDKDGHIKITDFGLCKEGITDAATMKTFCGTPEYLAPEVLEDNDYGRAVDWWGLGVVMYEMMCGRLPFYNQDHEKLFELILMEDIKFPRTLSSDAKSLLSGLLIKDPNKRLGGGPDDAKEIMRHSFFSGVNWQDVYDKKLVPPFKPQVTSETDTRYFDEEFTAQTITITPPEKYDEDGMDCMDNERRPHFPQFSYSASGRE
Chain of Platelet-derived growth factor receptor beta (Homo sapiens) (P09619 whole entry): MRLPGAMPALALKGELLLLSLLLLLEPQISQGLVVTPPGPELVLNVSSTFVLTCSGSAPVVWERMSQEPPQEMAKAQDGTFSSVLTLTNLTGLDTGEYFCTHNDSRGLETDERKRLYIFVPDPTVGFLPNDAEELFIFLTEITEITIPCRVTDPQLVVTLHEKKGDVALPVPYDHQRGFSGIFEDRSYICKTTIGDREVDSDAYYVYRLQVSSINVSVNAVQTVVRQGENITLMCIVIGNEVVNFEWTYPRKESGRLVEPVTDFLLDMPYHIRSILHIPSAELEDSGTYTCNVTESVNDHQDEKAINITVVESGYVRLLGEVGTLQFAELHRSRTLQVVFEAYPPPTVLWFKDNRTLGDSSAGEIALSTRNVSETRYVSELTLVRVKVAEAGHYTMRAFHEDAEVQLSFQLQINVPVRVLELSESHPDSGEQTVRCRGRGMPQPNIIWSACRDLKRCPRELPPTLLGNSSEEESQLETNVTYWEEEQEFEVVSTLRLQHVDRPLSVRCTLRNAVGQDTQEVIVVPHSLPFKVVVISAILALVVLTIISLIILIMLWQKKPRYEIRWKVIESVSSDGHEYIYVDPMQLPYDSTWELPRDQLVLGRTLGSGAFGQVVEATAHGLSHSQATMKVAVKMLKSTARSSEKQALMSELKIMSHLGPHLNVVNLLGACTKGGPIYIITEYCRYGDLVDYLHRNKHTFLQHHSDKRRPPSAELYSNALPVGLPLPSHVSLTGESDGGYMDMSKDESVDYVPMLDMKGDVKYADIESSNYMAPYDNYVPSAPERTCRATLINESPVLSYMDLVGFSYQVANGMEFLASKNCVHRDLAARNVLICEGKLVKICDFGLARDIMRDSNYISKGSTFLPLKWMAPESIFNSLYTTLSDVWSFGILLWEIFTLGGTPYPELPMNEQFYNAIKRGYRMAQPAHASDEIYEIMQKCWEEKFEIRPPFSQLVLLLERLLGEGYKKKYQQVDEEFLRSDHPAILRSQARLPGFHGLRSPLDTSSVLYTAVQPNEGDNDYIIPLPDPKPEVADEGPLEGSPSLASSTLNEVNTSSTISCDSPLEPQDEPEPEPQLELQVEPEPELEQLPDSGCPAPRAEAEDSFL
Chain of Histamine H1 receptor (Homo sapiens) (P35367 whole entry): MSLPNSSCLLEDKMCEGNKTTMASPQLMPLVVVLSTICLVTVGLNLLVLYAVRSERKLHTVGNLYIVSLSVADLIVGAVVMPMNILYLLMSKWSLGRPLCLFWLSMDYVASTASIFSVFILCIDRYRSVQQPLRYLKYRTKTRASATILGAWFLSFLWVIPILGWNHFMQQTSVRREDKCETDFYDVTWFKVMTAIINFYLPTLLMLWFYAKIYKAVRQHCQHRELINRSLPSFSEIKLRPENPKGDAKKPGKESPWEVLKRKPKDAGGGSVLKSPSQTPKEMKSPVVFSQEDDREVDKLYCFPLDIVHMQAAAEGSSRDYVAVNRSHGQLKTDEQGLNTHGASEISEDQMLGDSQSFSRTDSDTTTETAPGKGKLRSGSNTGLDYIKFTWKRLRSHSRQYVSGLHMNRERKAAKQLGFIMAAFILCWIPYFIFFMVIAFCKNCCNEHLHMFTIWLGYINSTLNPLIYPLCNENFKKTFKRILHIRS
Chain of MAP/microtubule affinity-regulating kinase 4 (Homo sapiens) (Q96L34 whole entry): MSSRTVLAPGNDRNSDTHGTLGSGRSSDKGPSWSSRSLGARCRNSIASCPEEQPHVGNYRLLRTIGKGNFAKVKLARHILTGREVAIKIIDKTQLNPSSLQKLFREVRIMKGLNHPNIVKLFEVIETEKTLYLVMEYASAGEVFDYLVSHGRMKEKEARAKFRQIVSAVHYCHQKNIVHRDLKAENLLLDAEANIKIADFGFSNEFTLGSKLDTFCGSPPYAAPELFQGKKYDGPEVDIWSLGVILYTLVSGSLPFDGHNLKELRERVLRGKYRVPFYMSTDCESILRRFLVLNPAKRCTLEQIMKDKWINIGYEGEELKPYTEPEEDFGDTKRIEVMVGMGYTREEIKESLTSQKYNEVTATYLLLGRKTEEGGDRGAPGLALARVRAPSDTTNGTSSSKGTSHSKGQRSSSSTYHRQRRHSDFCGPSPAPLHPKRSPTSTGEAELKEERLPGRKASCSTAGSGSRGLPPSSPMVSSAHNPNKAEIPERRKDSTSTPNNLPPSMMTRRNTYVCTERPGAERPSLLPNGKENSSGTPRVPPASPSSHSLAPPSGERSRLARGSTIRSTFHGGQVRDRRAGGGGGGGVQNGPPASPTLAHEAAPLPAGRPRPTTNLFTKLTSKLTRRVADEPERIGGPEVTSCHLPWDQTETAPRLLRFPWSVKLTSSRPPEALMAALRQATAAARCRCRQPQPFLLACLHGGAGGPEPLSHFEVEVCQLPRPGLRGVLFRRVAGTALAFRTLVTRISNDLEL
Chain of cGMP-inhibited 3',5'-cyclic phosphodiesterase 3A (Homo sapiens) (Q14432 whole entry): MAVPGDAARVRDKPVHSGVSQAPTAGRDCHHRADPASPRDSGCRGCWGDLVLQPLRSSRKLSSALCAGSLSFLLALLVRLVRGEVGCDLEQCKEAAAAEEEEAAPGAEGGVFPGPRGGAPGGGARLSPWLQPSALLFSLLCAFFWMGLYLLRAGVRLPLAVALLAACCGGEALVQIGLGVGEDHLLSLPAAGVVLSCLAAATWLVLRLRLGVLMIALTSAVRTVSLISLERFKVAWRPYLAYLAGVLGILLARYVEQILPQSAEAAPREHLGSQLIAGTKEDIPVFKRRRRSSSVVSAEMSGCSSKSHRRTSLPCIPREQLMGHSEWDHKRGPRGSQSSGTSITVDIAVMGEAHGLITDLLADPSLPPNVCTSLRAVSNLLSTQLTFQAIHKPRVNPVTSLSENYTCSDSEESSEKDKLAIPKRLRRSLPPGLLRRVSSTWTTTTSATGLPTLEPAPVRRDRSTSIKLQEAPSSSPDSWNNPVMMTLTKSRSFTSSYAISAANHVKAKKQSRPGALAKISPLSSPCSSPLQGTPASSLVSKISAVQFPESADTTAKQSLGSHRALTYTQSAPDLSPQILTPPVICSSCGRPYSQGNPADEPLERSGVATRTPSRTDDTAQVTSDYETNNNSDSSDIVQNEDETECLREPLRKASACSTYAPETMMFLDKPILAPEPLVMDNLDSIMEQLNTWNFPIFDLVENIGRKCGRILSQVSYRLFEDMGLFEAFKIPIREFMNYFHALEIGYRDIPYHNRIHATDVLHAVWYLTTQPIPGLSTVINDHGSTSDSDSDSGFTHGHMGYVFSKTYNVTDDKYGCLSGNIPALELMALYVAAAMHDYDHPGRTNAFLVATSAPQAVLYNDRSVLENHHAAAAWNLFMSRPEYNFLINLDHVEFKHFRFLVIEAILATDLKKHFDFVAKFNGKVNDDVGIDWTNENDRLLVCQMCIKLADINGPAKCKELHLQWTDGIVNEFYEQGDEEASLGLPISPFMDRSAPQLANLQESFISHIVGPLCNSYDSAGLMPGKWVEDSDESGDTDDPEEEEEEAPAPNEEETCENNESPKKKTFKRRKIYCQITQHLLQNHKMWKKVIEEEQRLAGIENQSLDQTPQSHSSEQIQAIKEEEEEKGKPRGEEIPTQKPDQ
Chain of Prostaglandin G/H synthase 1 (Homo sapiens) (P23219 whole entry): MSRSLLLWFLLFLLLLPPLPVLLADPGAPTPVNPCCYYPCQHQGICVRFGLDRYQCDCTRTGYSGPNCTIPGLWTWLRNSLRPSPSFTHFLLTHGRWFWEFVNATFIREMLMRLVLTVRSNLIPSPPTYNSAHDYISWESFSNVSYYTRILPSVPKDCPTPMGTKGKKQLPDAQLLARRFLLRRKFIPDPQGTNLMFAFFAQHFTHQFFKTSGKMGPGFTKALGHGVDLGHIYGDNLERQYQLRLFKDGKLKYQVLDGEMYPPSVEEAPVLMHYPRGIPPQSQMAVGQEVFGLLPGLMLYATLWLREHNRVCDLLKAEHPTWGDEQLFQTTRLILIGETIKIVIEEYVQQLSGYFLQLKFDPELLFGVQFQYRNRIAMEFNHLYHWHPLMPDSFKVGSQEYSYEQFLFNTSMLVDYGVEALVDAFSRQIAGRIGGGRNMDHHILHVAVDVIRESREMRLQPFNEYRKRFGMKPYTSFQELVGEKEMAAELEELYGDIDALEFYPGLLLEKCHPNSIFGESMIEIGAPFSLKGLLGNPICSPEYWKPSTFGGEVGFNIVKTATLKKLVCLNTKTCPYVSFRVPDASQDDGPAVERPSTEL
Chain of Sigma non-opioid intracellular receptor 1 (Homo sapiens) (Q99720 whole entry): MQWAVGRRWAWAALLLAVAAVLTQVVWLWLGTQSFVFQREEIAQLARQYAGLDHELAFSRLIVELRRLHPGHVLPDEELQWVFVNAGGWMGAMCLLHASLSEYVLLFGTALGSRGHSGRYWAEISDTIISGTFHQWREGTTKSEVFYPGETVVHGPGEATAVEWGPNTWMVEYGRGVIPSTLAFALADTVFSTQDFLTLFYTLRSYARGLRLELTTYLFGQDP

SMILES | % Inhibition of Control Values (Mean n=2) [1] [%] | % Inhibition of Control Values (Mean n=2) [2] [%] | % Inhibition of Control Specific Binding (Mean n=2) [3] [%] | % Inhibition of Control Specific Binding (Mean n=2) [4] [%] | % Inhibition of Control Specific Binding (Mean n=2) [5] [%] | % Inhibition of Control Specific Binding (Mean n=2) [6] [%] | % Inhibition of Control Specific Binding (Mean n=2) [7] [%] | residual activity [8] [%] | residual activity [9] [%] | residual activity [10] [%] | residual activity [11] [%] | residual activity [12] [%] | residual activity [13] [%] | residual activity [14] [%] | residual activity [15] [%] | residual activity [16] [%] | residual activity [17] [%] | residual activity [18] [%] | residual activity [19] [%] | residual activity [20] [%] | also measured
O=C(NS(=O)(=O)c1ccc(NCC2CCOCC2)c([N+](=O)[O-])c1)c1ccc(N2CCN(Cc3ccc(C(F)(F)F)cc3-c3ccc(Cl)cc3)CC2)cc1Oc1cnc2[nH]ccc2c1 [A-1210227] | 3.7 | 6 | 36 | -13 | 3.7 | -104 | -9.4 | 100 | 89 | 89 | 100 | 100 | 85 | 100 | 100 | 100 | 100 | 85 | 72 | 100 | residual activity [21]: 100%; residual activity [22]: 100%; residual activity [23]: 100%; residual activity [24]: 100%; residual activity [25]: 100%; residual activity [26]: 100%; residual activity [27]: 94%; residual activity [28]: 89%; inhibition [29]: -9.16%; inhibition [30]: -5.79%
CO[C@H]1CC[C@H](CNc2ccc(S(=O)(=O)NC(=O)c3ccc(N4CCN(CC5=C(c6ccc(Cl)cc6)CC(C)(C)CC5)CC4)cc3Oc3cnc4[nH]ccc4c3)cc2[N+](=O)[O-])CC1 [A-1211212] | 6.9 | 4.9 | 44.9 | 21.4 | -4.1 | 22.4 | 4.6 | 81 | 84 | 100 | 100 | 86 | 75 | 100 | 100 | 100 | 100 | 83 | 97 | 100 | residual activity [21]: 99%; residual activity [22]: 89%; residual activity [23]: 79%; residual activity [24]: 90%; residual activity [25]: 94%; residual activity [26]: 100%; residual activity [27]: 100%; residual activity [28]: 87%; inhibition [29]: 34.2%; inhibition [30]: -0.31%
